Test results taken from patent publication US20200131196A1 (Mount Tam Therapeutics, Inc., priority 2017, published 2020).
pEC50, pIC50: −log10 of the molar value. Read-outs that look alike come from different tables or passages of the source.

Legend:
Assay type in all cases: cell-based, human
ST486 = assay: OncoPanel cell proliferation assay, ST486; details: Homo sapiens, read-out: Cell Count IC50
Protocol: (§1) Cells were grown in RPMI 1640, 10% FBS, 2 mM L-alanyl-L-glutamine, 1 mM Na pyruvate, or a special medium. Cells were seeded into 384-well plates and incubated in a humidified atmosphere of 5% CO2 at 37° C. Compounds were added the day following cell seeding. At the same time, a time zero untreated cell plate was generated. After a 3-day incubation period, cells were fixed and stained to allow fluorescence imaging of nuclei. Compounds (1 mM stock solutions) were serially diluted in half-log steps from the highest test concentration ([…]), and assayed over 10 concentrations with a maximum assay concentration of 0.1% DMSO. Automated fluorescence microscopy was carried out using a Molecular Devices ImageXpress Micro XL high-content imager, and images were collected with a 4× objective. 16-bit TIFF images were acquired and analyzed with MetaXpress 5.1.0.41 software.
(§2) Cell proliferation was measured by the fluorescence intensity of an incorporated nuclear dye. The output is referred to as the relative cell count, where the measured nuclear intensity is transformed to percent of control (POC) using the following formula: […]
(§3) Cellular response parameters were calculated using nonlinear regression to a sigmoidal single-site dose response model:
(§4) EC50 is the test compound concentration at the curve inflection point or half the effective response (parameter C of the fitted curve solution). GI50 is the concentration needed to reduce the observed growth by half (midway between the curve maximum and the time zero value). “Cell Count Activity Area” is an estimate of the integrated area above the curve (Barretina, et al. The Cancer Cell Line Encyclopedia enables predictive modelling of anticancer drug sensitivity. Nature 483: 603-607). […] In rare instances, values <0 or >10 may be observed. […] Curve-fitting, calculations, and report generation was performed using a custom data reduction engine and MathIQ based software (AIM).

U-87 MG = assay: OncoPanel cell proliferation assay, U-87 MG
Protocol: as §1, §2, §3, §4

SCaBER = assay: OncoPanel cell proliferation assay, SCaBER
Protocol: as §1, §2, §3, §4

T24 = assay: OncoPanel cell proliferation assay, T24
Protocol: as §1, §2, §3, §4

SNU-C2B = assay: OncoPanel cell proliferation assay, SNU-C2B
Protocol: as §1, §2, §3, §4

MES-SA = assay: OncoPanel cell proliferation assay, MES-SA
Protocol: as §1, §2, §3, §4

SNU-5 = assay: OncoPanel cell proliferation assay, SNU-5
Protocol: as §1, with “Cells” for “Cells were grown in RPMI 1640, 10% FBS, 2 mM L-alanyl-L-glutamine, 1 mM Na pyruvate, or a special medium. Cells”
as §2, §3
GI50 is the concentration needed to reduce the observed growth by half (midway between the curve maximum and the time zero value). […] In rare instances, values <0 or >10 may be observed. […] Curve-fitting, calculations, and report generation was performed using a custom data reduction engine and MathIQ based software (AIM).

[1] = Homo sapiens, read-out: Cell Count EC50
[2] = Homo sapiens, read-out: Cell Count GI50
[3] = Homo sapiens, read-out: Cell Count IC50

## CO[C@H]1C[C@@H]2CC[C@@H](C)[C@@](O)(O2)C(=O)C(=O)N2CCCC[C@H]2C(=O)O[C@H]([C@H](C)C[C@H]2C[C@H]3C[C@@H]2C[C@@H]3O)CC(=O)[C@H](C)/C=C(\C)[C@@H](O)[C@@H](OC)C(=O)[C@H](C)C[C@H](C)/C=C/C=C/C=C/1C [Formula II, C37-[(1R,2S,4R,5S)-5-hyhroxybicyclo[2.2.1]heptane] rapamycin]
ST486
  pIC50: < 6.00
U-87 MG
  Cell Count Activity Area: 3.76
U-87 MG; 1.00E+00 microM
  Relative cell count (%) Mean: 48.9%
U-87 MG; 1.00E-01 microM
  Relative cell count (%) Mean: 52.1%
U-87 MG; 1.00E-02 microM
  Relative cell count (%) Mean: 70.4%
U-87 MG; 1.00E-03 microM
  Relative cell count (%) Mean: 78.8%
U-87 MG; 1.01E-04 microM
  Relative cell count (%) Mean: 101.1%
U-87 MG; 3.16E-01 microM
  Relative cell count (%) Mean: 50.7%
U-87 MG; 3.17E-02 microM
  Relative cell count (%) Mean: 60.4%
U-87 MG; 3.17E-03 microM
  Relative cell count (%) Mean: 71.4%
U-87 MG; 3.18E-04 microM
  Relative cell count (%) Mean: 85.3%
U-87 MG; 3.18E-05 microM
  Relative cell count (%) Mean: 108.2%
U-87 MG; [1]
  pEC50: 9.00
U-87 MG; [2]
  GI50: 2.17 nM
U-87 MG; [3]
  pIC50: 7.47
SCaBER
  Cell Count Activity Area: 4.82
SCaBER; 1.00E+00 microM
  Relative cell count (%) Mean: 32.7%
SCaBER; 1.00E-01 microM
  Relative cell count (%) Mean: 44.5%
SCaBER; 1.00E-02 microM
  Relative cell count (%) Mean: 42.2%
SCaBER; 1.00E-03 microM
  Relative cell count (%) Mean: 56.1%
SCaBER; 1.01E-04 microM
  Relative cell count (%) Mean: 83.1%
SCaBER; 3.16E-01 microM
  Relative cell count (%) Mean: 36.3%
SCaBER; 3.17E-02 microM
  Relative cell count (%) Mean: 39.5%
SCaBER; 3.17E-03 microM
  Relative cell count (%) Mean: 50.7%
SCaBER; 3.18E-04 microM
  Relative cell count (%) Mean: 63.5%
SCaBER; 3.18E-05 microM
  Relative cell count (%) Mean: 93.1%
SCaBER; Homo sapiens, Bladder, summary Table 5, read-out: EC50
  pEC50: 9.60
SCaBER; [1]
  pEC50: 9.60
SCaBER; [2]
  GI50: 0.872 nM
SCaBER; [3]
  pIC50: 8.80
T24
  Cell Count Activity Area: 4.16
T24; 1.00E+00 microM
  Relative cell count (%) Mean: 36.6%
T24; 1.00E-01 microM
  Relative cell count (%) Mean: 42.2%
T24; 1.00E-02 microM
  Relative cell count (%) Mean: 52.8%
T24; 1.00E-03 microM
  Relative cell count (%) Mean: 61.8%
T24; 1.01E-04 microM
  Relative cell count (%) Mean: 85.7%
T24; 3.16E-01 microM
  Relative cell count (%) Mean: 40.8%
T24; 3.17E-02 microM
  Relative cell count (%) Mean: 48.5%
T24; 3.17E-03 microM
  Relative cell count (%) Mean: 52.6%
T24; 3.18E-04 microM
  Relative cell count (%) Mean: 69.8%
T24; 3.18E-05 microM
  Relative cell count (%) Mean: 93.2%
T24; Homo sapiens, T-24, read-out: Cell Count EC50
  pEC50: 9.33
T24; Homo sapiens, T-24, read-out: Cell Count GI50
  GI50: 3.09 nM
T24; Homo sapiens, T-24, read-out: Cell Count IC50
  pIC50: 8.17
SNU-C2B
  Cell Count Activity Area: 2.73
SNU-C2B; 1.00E+00 microM
  Relative cell count (%) Mean: 74.9%
SNU-C2B; 1.00E-01 microM
  Relative cell count (%) Mean: 76.2%
SNU-C2B; 1.00E-02 microM
  Relative cell count (%) Mean: 79.1%
SNU-C2B; 1.00E-03 microM
  Relative cell count (%) Mean: 74.1%
SNU-C2B; 1.01E-04 microM
  Relative cell count (%) Mean: 97.1%
SNU-C2B; 3.16E-01 microM
  Relative cell count (%) Mean: 66.6%
SNU-C2B; 3.17E-02 microM
  Relative cell count (%) Mean: 69.5%
SNU-C2B; 3.17E-03 microM
  Relative cell count (%) Mean: 76.3%
SNU-C2B; 3.18E-04 microM
  Relative cell count (%) Mean: 88.6%
SNU-C2B; 3.18E-05 microM
  Relative cell count (%) Mean: 106.6%
SNU-C2B; [1]
  pEC50: 9.75
SNU-C2B; [2]
  GI50: 3.16 nM
SNU-C2B; [3]
  pIC50: < 6.00
MES-SA
  Cell Count Activity Area: 4.81
MES-SA; 1.00E+00 microM
  Relative cell count (%) Mean: 26.6%
MES-SA; 1.00E-01 microM
  Relative cell count (%) Mean: 31.4%
MES-SA; 1.00E-02 microM
  Relative cell count (%) Mean: 43.5%
MES-SA; 1.00E-03 microM
  Relative cell count (%) Mean: 71.1%
MES-SA; 1.01E-04 microM
  Relative cell count (%) Mean: 107.7%
MES-SA; 3.16E-01 microM
  Relative cell count (%) Mean: 26.5%
MES-SA; 3.17E-02 microM
  Relative cell count (%) Mean: 35.6%
MES-SA; 3.17E-03 microM
  Relative cell count (%) Mean: 53.2%
MES-SA; 3.18E-04 microM
  Relative cell count (%) Mean: 90.9%
MES-SA; 3.18E-05 microM
  Relative cell count (%) Mean: 105.0%
MES-SA; [1]
  pEC50: 8.93
MES-SA; [2]
  GI50: 1.96 nM
MES-SA; [3]
  pIC50: 8.56
SNU-5
  Cell Count Activity Area: 1.85
SNU-5; 1.00E+00 microM
  Relative cell count (%) Mean: 67.1%
SNU-5; 1.00E-01 microM
  Relative cell count (%) Mean: 71.9%
SNU-5; 1.00E-02 microM
  Relative cell count (%) Mean: 82.9%
SNU-5; 1.00E-03 microM
  Relative cell count (%) Mean: 95.6%
SNU-5; 1.01E-04 microM
  Relative cell count (%) Mean: 101.2%
SNU-5; 3.16E-01 microM
  Relative cell count (%) Mean: 70.4%
SNU-5; 3.17E-02 microM
  Relative cell count (%) Mean: 76.3%
SNU-5; 3.17E-03 microM
  Relative cell count (%) Mean: 84.9%
SNU-5; 3.18E-04 microM
  Relative cell count (%) Mean: 95.6%
SNU-5; 3.18E-05 microM
  Relative cell count (%) Mean: 101.0%
SNU-5; [1]
  pEC50: 8.25
SNU-5; [2]
  GI50: 168 nM
SNU-5; [3]
  pIC50: < 6.00
